{"source": "patent US20220289685A1", "about": "“ANTIMALARIAL HEXAHYDROPYRIMIDINE ANALOGUES” (UCB BIOPHARMA SRL, priority 2019, published 2022)", "test_system": "Plasmodium falciparum 3D7 strain", "experiment": "P. falciparum 3D7 asexual blood stage assay (SYBR green readout)", "format": "cell-based", "conditions": "Plasmodium falciparum", "outline": "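P. falciparum 3D7 in A+ erythrocytes (5% haematocrit, 0.5% parasitaemia) exposed 72 h at 37 °C under 1% O2/3% CO2 to 20-point 1.5-fold titrations, 50,000–15 nM in 0.5% DMSO. SYBR green lysis overnight, fluorescence 485/528 nm; normalized to mefloquine and DMSO, EC50 from biphasic two-site fit.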", "note": "Counter-ions that a name gives are not always drawn. Like-named read-outs stand apart in the source and are kept apart here.", "data": [{"smiles": "C[C@@H]1C[C@H](N2C(=N)N[C@](C)(c3cccc(NC(=O)c4ccncc4C(F)(F)F)c3Cl)CC2=O)CCO1", "note": "(relative stereo) [Example 89, N-(2-Chloro-3-{(4S)-2-imino-4-methyl-1-[(2R*,4R*)-2-methyl-tetrahydropyran-4-yl]-6-oxo-hexahydropyrimidin-4-yl}phenyl)-3-(trifluoromethyl)pyridine-4-carboxamide trifluoroacetic acid salt]", "values": [{"measurement": "IC50", "setting": "3D7, Erythrocyte, 72 h", "value": 373, "unit": "nM"}]}, {"smiles": "Cc1ccc(C(=O)Nc2cccc([C@]3(C)CC(=O)N([C@@H]4CCO[C@H](C)C4)C(=N)N3)c2Cl)nn1", "note": "(relative stereo) [Example 54, N-(2-Chloro-3-{(4S)-2-imino-4-methyl-1-[(2R*,4R*)-2-methyl-tetrahydropyran-4-yl]-6-oxo-hexahydropyrimidin-4-yl}phenyl)-6-methylpyridazine-3-carboxamide hydrochloride]", "values": [{"measurement": "IC50", "setting": "3D7, Erythrocyte, 72 h", "value": 170, "unit": "nM"}]}, {"smiles": "C[C@@H]1C[C@H](N2C(=N)N[C@](C)(c3cccc(NC(=O)c4ncc(F)cc4C(F)(F)F)c3Cl)CC2=O)CCO1", "note": "(relative stereo) [Example 94, N-(2-Chloro-3-{(4S)-2-imino-4-methyl-1-[(2R*,4R*)-2-methyl-tetrahydropyran-4-yl]-6-oxo-hexahydropyrimidin-4-yl}phenyl)-5-fluoro-3-(trifluoromethyl)-pyridine-2-carboxamide hydrochloride]", "values": [{"measurement": "IC50", "setting": "3D7, Erythrocyte, 72 h", "value": 81, "unit": "nM"}]}, {"smiles": "C[C@@H]1C[C@H](N2C(=N)N[C@](C)(c3cccc(NC(=O)c4ccc(Cl)c(C#N)c4)c3Cl)CC2=O)CCO1", "note": "(relative stereo) [Example 117, 4-Chloro-N-(2-chloro-3-{(4S)-2-imino-4-methyl-1-[(2R*,4R*)-2-methyltetrahydropyran-4-yl]-6-oxo-hexahydropyrimidin-4-yl}phenyl)-3-cyanobenzamide trifluoroacetic acid salt]", "values": [{"measurement": "IC50", "setting": "3D7, Erythrocyte, 72 h", "value": 17, "unit": "nM"}]}, {"smiles": "C[C@@H]1C[C@H](N2C(=N)N[C@](C)(c3cccc(NC(=O)c4ccc(C#N)cc4)c3Cl)CC2=O)CCO1", "note": "(relative stereo) [Example 10, N-(2-Chloro-3-{(4S)-2-imino-4-methyl-1-[(2R*,4R*)-2-methyl-tetrahydropyran-4-yl]-6-oxo-hexahydropyrimidin-4-yl]phenyl)-4-cyanobenzamide hydrochloride]", "values": [{"measurement": "IC50", "setting": "3D7, Erythrocyte, 72 h", "value": 290, "unit": "nM"}]}, {"smiles": "C[C@@H]1C[C@H](N2C(=N)N[C@](C)(c3cccc(NC(=O)c4cc(C(F)(F)F)cnn4)c3Cl)CC2=O)CCO1", "note": "(relative stereo) [Example 55, N-(2-Chloro-3-{(4S)-2-imino-4-methyl-1-[(2R*,4R*)-2-methyl-tetrahydropyran-4-yl]-6-oxo-hexahydropyrimidin-4-yl}phenyl)-5-(trifluoromethyl)pyridazine-3-carboxamide hydrochloride]", "values": [{"measurement": "IC50", "setting": "3D7, Erythrocyte, 72 h", "value": 53, "unit": "nM"}]}, {"smiles": "C[C@@H]1C[C@H](N2C(=N)N[C@](C)(c3cccc(NC(=O)c4cn(C)c5ccccc45)c3Cl)CC2=O)CCO1", "note": "(relative stereo) [Example 27, N-(2-Chloro-3-{(4S)-2-imino-4-methyl-1-[(2R*,4R*)-2-methyl-tetrahydropyran-4-yl]-6-oxo-hexahydropyrimidin-4-yl}phenyl)-1-methylindole-3-carboxamide trifluoroacetic acid salt]", "values": [{"measurement": "IC50", "setting": "3D7, Erythrocyte, 72 h", "value": 29, "unit": "nM"}]}, {"smiles": "C[C@@H]1C[C@H](N2C(=N)N[C@](C)(c3cccc(NC(=O)c4ccncn4)c3Cl)CC2=O)CCO1", "note": "(relative stereo) [Example 16, N-(2-Chloro-3-{(4S)-2-imino-4-methyl-1-[(2R*,4R*)-2-methyl-tetrahydropyran-4-yl]-6-oxo-hexahydropyrimidin-4-yl}phenyl)-pyrimidine-4-carboxamide hydrochloride]", "values": [{"measurement": "IC50", "setting": "3D7, Erythrocyte, 72 h", "value": 23, "unit": "nM"}]}, {"smiles": "COc1nccc(C(F)(F)F)c1C(=O)Nc1cccc([C@]2(C)CC(=O)N([C@@H]3CCO[C@H](C)C3)C(=N)N2)c1Cl", "note": "(relative stereo) [Example 114, N-(2-Chloro-3-{(4S)-2-imino-4-methyl-1-[(2R*,4R*)-2-methyl-tetrahydropyran-4-yl]-6-oxo-hexahydropyrimidin-4-yl]phenyl)-2-methoxy-4-(trifluoromethyl)-pyridine-3-carboxamide hydrochloride]", "values": [{"measurement": "IC50", "setting": "3D7, Erythrocyte, 72 h", "value": 53, "unit": "nM"}]}, {"smiles": "CC#Cc1cncc(C(=O)Nc2cccc([C@]3(C)CC(=O)N([C@@H]4CCO[C@H](C)C4)C(=N)N3)c2Cl)c1", "note": "(relative stereo) [Example 108, N-(2-Chloro-3-{(4S)-2-imino-4-methyl-1-[(2R*,4R*)-2-methyl-tetrahydropyran-4-yl]-6-oxo-hexahydropyrimidin-4-yl}phenyl)-5-(prop-1-ynyl)pyridine-3-carboxamide hydrochloride]", "values": [{"measurement": "IC50", "setting": "3D7, Erythrocyte, 72 h", "value": 40, "unit": "nM"}]}, {"smiles": "Cc1cc(Cl)cc(C(=O)Nc2cccc([C@]3(C)CC(=O)N([C@@H]4CCO[C@H](C)C4)C(=N)N3)c2Cl)c1", "note": "(relative stereo) [Example 22, 3-Chloro-N-(2-chloro-3-{(4S)-2-imino-4-methyl-1-[(2R*,4R*)-2-methyltetrahydropyran-4-yl]-6-oxo-hexahydropyrimidin-4-yl}phenyl)-5-methylbenzamide hydrochloride]", "values": [{"measurement": "IC50", "setting": "3D7, Erythrocyte, 72 h", "value": 9, "unit": "nM"}]}, {"smiles": "C[C@@H]1C[C@H](N2C(=N)N[C@](C)(c3cccc(NC(=O)c4cc(C#N)cn4C)c3Cl)CC2=O)CCO1", "note": "(relative stereo) [Example 113, N-(2-Chloro-3-{(4S)-2-imino-4-methyl-1-[(2R*,4R*)-2-methyl-tetrahydropyran-4-yl]-6-oxo-hexahydropyrimidin-4-yl}phenyl)-4-cyano-1-methylpyrrole-2-carboxamide trifluoroacetic acid salt]", "values": [{"measurement": "IC50", "setting": "3D7, Erythrocyte, 72 h", "value": 5, "unit": "nM"}]}, {"smiles": "C[C@@H]1C[C@H](N2C(=N)N[C@](C)(c3cccc(NC(=O)c4cccc(Cl)c4)c3Cl)CC2=O)CCO1", "note": "(relative stereo) [Example 11, 3-Chloro-N-(2-chloro-3-{(4S)-2-imino-4-methyl-1-[(2R*,4R*)-2-methyltetrahydropyran-4-yl]-6-oxo-hexahydropyrimidin-4-yl]phenyl)-benzamide hydrochloride]", "values": [{"measurement": "IC50", "setting": "3D7, Erythrocyte, 72 h", "value": 9, "unit": "nM"}]}, {"smiles": "C[C@@H]1C[C@H](N2C(=N)N[C@](C)(c3cccc(NC(=O)c4cc(F)cc(F)c4)c3Cl)CC2=O)CCO1", "note": "(relative stereo) [Example 42, N-(2-Chloro-3-{(4S)-2-imino-4-methyl-1-[(2R*,4R*)-2-methyl-tetrahydropyran-4-yl]-6-oxo-hexahydropyrimidin-4-yl]phenyl)-3,5-difluorobenzamide trifluoroacetic acid salt]", "values": [{"measurement": "IC50", "setting": "3D7, Erythrocyte, 72 h", "value": 42, "unit": "nM"}]}, {"smiles": "C[C@@H]1C[C@H](N2C(=N)N[C@](C)(c3cccc(NC(=O)c4cncc(C5CC5)c4)c3Cl)CC2=O)CCO1", "note": "(relative stereo) [Example 104, N-(2-Chloro-3-{(4S)-2-imino-4-methyl-1-[(2R*,4R*)-2-methyl-tetrahydropyran-4-yl]-6-oxo-hexahydropyrimidin-4-yl}phenyl)-5-cyclopropylpyridine-3-carboxamide hydrochloride]", "values": [{"measurement": "IC50", "setting": "3D7, Erythrocyte, 72 h", "value": 19, "unit": "nM"}]}, {"smiles": "C[C@@H]1C[C@H](N2C(=N)N[C@](C)(c3cccc(NC(=O)c4ccc(F)cc4OC(F)(F)F)c3Cl)CC2=O)CCO1", "note": "(relative stereo) [Example 102, N-(2-Chloro-3-{(4S)-2-imino-4-methyl-1-[(2R*,4R*)-2-methyl-tetrahydropyran-4-yl]-6-oxo-hexahydropyrimidin-4-yl}phenyl)-4-fluoro-2-(trifluoromethoxy)-benzamide hydrochloride]", "values": [{"measurement": "IC50", "setting": "3D7, Erythrocyte, 72 h", "value": 35, "unit": "nM"}]}, {"smiles": "C[C@@H]1C[C@H](N2C(=N)N[C@](C)(c3cccc(NC(=O)c4ncccn4)c3Cl)CC2=O)CCO1", "note": "(relative stereo) [Example 15, N-(2-Chloro-3-{(4S)-2-imino-4-methyl-1-[(2R*,4R*)-2-methyl-tetrahydropyran-4-yl]-6-oxo-hexahydropyrimidin-4-yl}phenyl)-pyrimidine-2-carboxamide hydrochloride]", "values": [{"measurement": "IC50", "setting": "3D7, Erythrocyte, 72 h", "value": 37, "unit": "nM"}]}, {"smiles": "COc1c(C#N)cccc1C(=O)Nc1cccc([C@]2(C)CC(=O)N([C@@H]3CCO[C@H](C)C3)C(=N)N2)c1Cl", "note": "(relative stereo) [Example 107, N-(2-Chloro-3-{(4S)-2-imino-4-methyl-1-[(2R*,4R*)-2-methyl-tetrahydropyran-4-yl]-6-oxo-hexahydropyrimidin-4-yl}phenyl)-3-cyano-2-methoxybenzamide hydrochloride]", "values": [{"measurement": "IC50", "setting": "3D7, Erythrocyte, 72 h", "value": 27, "unit": "nM"}]}, {"smiles": "C[C@@H]1C[C@H](N2C(=N)N[C@](C)(c3cccc(NC(=O)c4c(F)cc(F)cc4F)c3Cl)CC2=O)CCO1", "note": "(relative stereo) [Example 101, N-(2-Chloro-3-{(4S)-2-imino-4-methyl-1-[(2,R*,4R*)-2-methyl-tetrahydropyran-4-yl]-6-oxo-hexahydropyrimidin-4-yl]phenyl)-2,4,6-trifluorobenzamide hydrochloride]", "values": [{"measurement": "IC50", "setting": "Erythrocyte, P. falciparum 3D7 in human erythrocytes, 72 h incubation, SYBR green fluorescence, read-out: IC50", "value": 85, "unit": "nM"}]}, {"smiles": "C[C@@H]1CC(N2C(=N)N[C@](C)(c3cccc(NC(=O)c4cccn5nnnc45)c3Cl)CC2=O)CCO1", "note": "(relative stereo) [Example 29, N-(2-Chloro-3-{(4S)-2-imino-4-methyl-1-[(2R*,4R*)-2-methyl-tetrahydropyran-4-yl]-6-oxo-hexahydropyrimidin-4-yl}phenyl)-tetrazolo[1,5-a] pyridine-8-carboxamide trifluoroacetic acid salt]", "values": [{"measurement": "IC50", "setting": "3D7, Erythrocyte, 72 h", "value": 23, "unit": "nM"}]}, {"smiles": "Cc1cn(-c2cccc(C(=O)Nc3cccc([C@]4(C)CC(=O)N([C@@H]5CCO[C@H](C)C5)C(=N)N4)c3Cl)c2)cn1", "note": "(relative stereo) [Example 110, N-(2-Chloro-3-{(4S)-2-imino-4-methyl-1-[(2R*,4R*)-2-methyl-tetrahydropyran-4-yl]-6-oxo-hexahydropyrimidin-4-yl}phenyl)-3-(4-methylimidazol-1-yl)-benzamide hydrochloride]", "values": [{"measurement": "IC50", "setting": "3D7, Erythrocyte, 72 h", "value": 288, "unit": "nM"}]}, {"smiles": "C[C@@H]1C[C@H](N2C(=N)N[C@](C)(c3cccc(NC(=O)c4ccc(F)cc4F)c3Cl)CC2=O)CCO1", "note": "(relative stereo) [Example 4, N-(2-Chloro-3-{(4S)-2-imino-4-methyl-1-[(2R*,4R*)-2-methyl-tetrahydropyran-4-yl]-6-oxo-hexahydropyrimidin-4-yl]phenyl)-2,4-difluorobenzamide hydrochloride]", "values": [{"measurement": "IC50", "setting": "3D7, Erythrocyte, 72 h", "value": 23, "unit": "nM"}]}]}
